Assay results reported in patent publication US8809352B2, “Sulfonamides as inhibitors of Bcl-2 family proteins for the treatments of cancer” (Novartis AG, priority 2009, dated 2014).

Each molecule was assayed against BCL2 (Homo sapiens, UniProt P10415) (assay: Biacore SPR solution inhibition assay of BCL-2 binding to peptide derivatized sensor surfaces). Settings: SPR competition; 56 nM BCL2 pre-equilibrated with compound one hour; biotinylated BAK, BAD and NOXA peptide surfaces; 25° C.
Sequence of BCL2 (P10415 whole entry): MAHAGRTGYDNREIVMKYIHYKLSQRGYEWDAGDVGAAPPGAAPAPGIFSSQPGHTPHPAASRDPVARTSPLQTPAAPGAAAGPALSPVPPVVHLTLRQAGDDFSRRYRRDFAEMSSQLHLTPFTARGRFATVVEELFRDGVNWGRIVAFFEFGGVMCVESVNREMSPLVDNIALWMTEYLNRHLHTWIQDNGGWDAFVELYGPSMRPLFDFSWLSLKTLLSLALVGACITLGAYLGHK
Excerpt: The present method includes utility of a Surface plasmon resonance (SPR)-based biosensor (Biacore™ GE Healthcare, Uppsala, Sweden) to characterize BCL-2 inhibitors.
Biacore™ utilizes the phenomenon of surface plasmon resonance (SPR) to detect and measure binding interactions. In a typical Biacore experiment, one of the interacting molecules (ligand) is immobilized on a flexible dextran matrix while the interacting partner (analyte) is allowed to flow across that surface. A binding interaction results in an increase in mass on the sensor surface and a corresponding direct change in the refractive index of the medium in the vicinity of the sensor surface. Changes in refractive index or signal are recorded in resonance units (R.U.) Signal changes due to association and dissociation of complexes are monitored in a non-invasive manner, continuously and in real-time, the results of which are reported in the form of a sensorgram. The SPR assay is configured to examine solution inhibition of BCL-2 binding to peptide derivatized sensor surfaces to generate […] values as a measure of inhibitor potency.
Biacore™ A100 (GE Healthcare, Uppsala, Sweden) was used to conduct all experiments reported herein. Sensor surface preparation and all interaction analyses experiments were performed at 25° C. Reagents were purchased from GE Healthcare. Running buffer containing 10 mM Hepes, pH7.4, 150 mM sodium chloride, 1.25 mM Dithiothreitol, 3% Dimethyl sulfoxide and 0.05% polysorbate 20 were utilized throughout all analyses.
Biotinylated BAK, BAD and NOXA peptides were diluted to 10 nM in running buffer and captured onto a sensor surface pre-derivatized with streptavidin (sensor chip SA) to peptide surface densities in the range 50-100 R.U. Peptide captured surfaces were blocked with 500 μM PEO2-Biotin.
Interaction analyses were performed by first equilibrating each sample within a 6 point three fold compound dilution series in the range 16 μM to 0.004 nM with 56 nM BCL2 for one hour during instrument start-up procedures. Protein compound mixtures were then injected over each peptide surface in parallel for 60 seconds at a flow-rate of 30 μL/min. 56 nM BCL2 control samples were also prepared and run at regular intervals during the assay. Surface regeneration was performed at the end of each analysis cycle by two 30 second injections of 10 mM Glycine, pH 2.5, 1M Sodium Chloride, 0.05% polysorbate 20. Samples and control compound samples were run in duplicate and controls are also run at regular intervals during the assay to monitor surface and assay performance.
Data analyses are carried out using Biacore™ A100 evaluation software v1.1 to validate assay quality. Binding level report points were used relative to BCL2 control samples to calculate % inhibition values for each compound protein mixture.
Molecule `CN(C)CC[C@H](CSc1ccccc1)Nc1ccc(S(=O)(=O)Nc2ncnc3c2CCN(C2CCN(Cc4ccccc4-c4ccc(Cl)cc4)CC2)C3)cc1C#N` [Example 54, (R)-N-(7-(1-((4′-chlorobiphenyl-2-yl)methyl)piperidin-4-yl)-5,6,7,8-tetrahydropyrido[3,4-d]pyrimidin-4-yl)-3-cyano-4-(4-(dimethylamino)-1-(phenylthio)butan-2-ylamino)benzenesulfonamide] has an IC50 of 173 nM.
In the case of `[2H]C1(N2CCc3c(nc(N(C)C)nc3NS(=O)(=O)c3ccc(N[C@H](CCN4CCN(C)CC4)CSc4ccccc4F)c(S(=O)(=O)C(F)(F)F)c3)C2)CCN(CC2=C(c3ccc(Cl)cc3)CC(C)(C)CC2)CC1` [Example 75, (R)-N-(7-(1-((2-(4-chlorophenyl)-4,4-dimethylcyclohex-1-enyl)methyl)-4-deuteropiperidin-4-yl)-2-(dimethylamino)-5,6,7,8-tetrahydropyrido[3,4-d]pyrimidin-4-yl)-4-(1-(2-fluorophenylthio)-4-(4-methylpiperazin-1-yl)butan-2-ylamino)-3-(trifluoromethylsulfonyl)benzenesulfonamide], the IC50 is reported as 66 nM.
`CN(C)CC[C@H](CSc1ccccc1Cl)Nc1ccc(S(=O)(=O)Nc2nc(C(F)(F)F)nc3c2CCN(C2CCN(Cc4ccccc4-c4ccc(Cl)cc4)CC2)C3)cc1S(=O)(=O)C(F)(F)F` [Example 33, (R)-N-(7-(1-((4′-chlorobiphenyl-2-yl)methyl)piperidin-4-yl)-2-(trifluoromethyl)-5,6,7,8-tetrahydropyrido[3,4-d]pyrimidin-4-yl)-4-(1-(2-chlorophenylthio)-4-(dimethylamino)butan-2-ylamino)-3-(trifluoromethylsulfonyl)benzenesulfonamide] was tested, and the IC50 was 73 nM.
Work on `CC[C@H](CSc1ccccc1)Nc1ccc(S(=O)(=O)Nc2ncnc3c2CCN(C2CCN(Cc4ccccc4-c4ccc(Cl)cc4)CC2)C3)cc1S(=O)(=O)C(F)(F)F` [Example 13] yielded an IC50 of 502 nM.
With `CCN1CCN(CC[C@H](CSc2ccccc2)Nc2ccc(S(=O)(=O)Nc3ncnc4c3CCN(C3CCN(Cc5ccccc5-c5ccc(Cl)cc5)CC3)C4)cc2S(=O)(=O)C(F)(F)F)CC1` [Example 23, N-{7-[1-(4′-Chloro-biphenyl-2-ylmethyl)-piperidin-4-yl]-5,6,7,8-tetrahydro-pyrido[3,4-d]pyrimidin-4-yl}-4[(R)-3-(4-ethyl-piperazin-1-yl)-1-phenylsulfanylmethyl-propylamino]-3-trifluoromethanesulfonyl-benzenesulfonamide] the IC50 was 51 nM.
Work on `CN(C)CC[C@H](CSc1ccccc1)Nc1ccc(S(=O)(=O)Nc2ncnc3c2CCN(C2CCN(Cc4ccc(F)cc4-c4ccc(Cl)cc4)CC2)C3)cc1S(=O)(=O)C(F)(F)F` [Example 19, (R)-N-(7-(1-((4′-chloro-5-fluorobiphenyl-2-yl)methyl)piperidin-4-yl)-5,6,7,8-tetrahydropyrido[3,4-d]pyrimidin-4-yl)-4-(4-(dimethylamino)-1-(phenylthio)butan-2-ylamino)-3-(trifluoromethylsulfonyl)benzenesulfonamide] yielded an IC50 of 35 nM.
Molecule `CN(C)CC[C@H](CSc1ccccc1F)Nc1ccc(S(=O)(=O)Nc2ncnc3c2CCN(C2CCN(Cc4ccccc4-c4ccc(Cl)cc4)CC2)C3)cc1S(=O)(=O)C(F)(F)F` [Example 47, N-{7-[1-(4′-Chloro-biphenyl-2-ylmethyl)-piperidin-4-yl]-5,6,7,8-tetrahydro-pyrido[3,4-d]pyrimidin-4-yl}-4-[(R)-3-dimethylamino-1-(2-fluoro-phenylsulfanylmethyl)-propylamino]-3-trifluoromethanesulfonyl-benzene sulfonamide] has an IC50 of 25 nM.
`O=S(=O)(Nc1nnc2n1CCN(C1CCN(Cc3ccccc3-c3ccc(Cl)cc3)CC1)C2)c1ccc(N[C@H](CCN2CCOCC2)CSc2ccccc2)c(S(=O)(=O)C(F)(F)F)c1` [Example 94] gave an IC50 of 405 nM.
With `CC1Cc2c(ncnc2NS(=O)(=O)c2ccc(N[C@H](CCN(C)C)CSc3ccccc3)c(S(=O)(=O)C(F)(F)F)c2)CN1C1CCN(Cc2ccccc2-c2ccc(Cl)cc2)CC1` (stereo in doubt) [Example 49, N-{(R)-7-[1-(4′-Chloro-biphenyl-2-ylmethyl)-piperidin-4-yl]-6-methyl-5,6,7,8-tetrahydro-pyrido[3,4-d]pyrimidin-4-yl}-4-((R)-3-dimethylamino-1-phenylsulfanylmethyl-propylamino)-3-trifluoromethanesulfonyl-benzenesulfonamide] the IC50 was 33 nM.
`CC1CC(N2CCn3c(nnc3NS(=O)(=O)c3ccc(N[C@H](CCN4CCOCC4)CSc4ccccc4)c(S(=O)(=O)C(F)(F)F)c3)C2)CCN1Cc1ccccc1-c1ccc(Cl)cc1` (stereo partly drawn) [Example 96, N-{7-[1-(4′-Chloro-biphenyl-2-ylmethyl)-2-methyl-piperidin-4-yl]-5,6,7,8-tetrahydro-[1,2,4]triazolo[4,3-a]pyrazin-3-yl}-4-((R)-3-morpholin-4-yl-1-phenylsulfanylmethyl-propylamino)-3-trifluoromethanesulfonyl-benzenesulfonamide] showed an IC50 of 144 nM.
`[2H]C1(N2CCc3c(ncnc3NS(=O)(=O)c3ccc(N[C@H](CCN4CCOCC4)CSc4ccccc4)c(S(=O)(=O)C(F)(F)F)c3)C2)CCN(C(C)C2=C(c3ccc(Cl)cc3)CC(C)(C)CC2)CC1` (stereo partly drawn) [Example 90, N-(7-(1-(1-(2-(4-chlorophenyl)-4,4-dimethylcyclohex-1-enyl)ethyl) 4-deuteropiperidin-4-yl)-5,6,7,8-tetrahydropyrido[3,4-d]pyrimidin-4-yl)-4-((R)-4-D-morpholino-1-(phenylthio)butan-2-ylamino)-3-(trifluoromethylsulfonyl)benzenesulfonamide] gave an IC50 of 149 nM.
With `CN(C)CC[C@H](CSc1ccccc1)Nc1ccc(S(=O)(=O)Nc2ncnc3c2CCN(C2CCN(CC4=C(c5ccc(Cl)cc5)CC(C)(C)CC4)CC2)C3)cc1S(=O)(=O)C(F)(F)F` [Example 17, (R)-N-(7-(1-((2-(4-chlorophenyl)-4,4-dimethylcyclohex-1-enyl)methyl)piperidin-4-yl)-5,6,7,8-tetrahydropyrido[3,4-d]pyrimidin-4-yl)-4-(4-(dimethylamino)-1-(phenylthio)butan-2-ylamino)-3-(trifluoromethylsulfonyl)benzenesulfonamide] the IC50 was 22 nM.
With `CN(C)CC[C@H](CSc1ccccc1)Nc1ccc(S(=O)(=O)Nc2ncnc3c2CCN(C2CCC(O)(Cc4ccccc4-c4ccc(Cl)cc4)CC2)C3)cc1S(=O)(=O)C(F)(F)F` (mixture of isomers) [Example 64, (R)-N-(7-(4-((4′-chlorobiphenyl-2-yl)methyl)-4-hydroxycyclohexyl)-5,6,7,8-tetrahydropyrido[3,4-d]pyrimidin-4-yl)-4-(4-(dimethylamino)-1-(phenylthio)butan-2-ylamino)-3-(trifluoromethylsulfonyl)benzenesulfonamide] the IC50 was 70 nM.
`CN(C)CC[C@H](CSc1ccccc1)Nc1ccc(S(=O)(=O)Nc2nc(Cl)nc3c2CCN(C2CCN(Cc4ccccc4-c4ccc(Cl)cc4)CC2)C3)cc1S(=O)(=O)C(F)(F)F` [Example 50, (R)-N-(2-chloro-7-(1-((4′-chlorobiphenyl-2-yl)methyl)piperidin-4-yl)-5,6,7,8-tetrahydropyrido[3,4-d]pyrimidin-4-yl)-4-(4-(dimethylamino)-1-(phenylthio)butan-2-ylamino)-3-(trifluoromethylsulfonyl)benzenesulfonamide] showed an IC50 of 31 nM.
Work on `[2H]C1(N2CCc3c(ncnc3NS(=O)(=O)c3ccc(N[C@H](CCN4CC5CCC(C4)O5)CSc4ccccc4)c(S(=O)(=O)C(F)(F)F)c3)C2)CCN(Cc2cc(F)ccc2-c2ccc(Cl)cc2)CC1` [Example 80, 4-((2R)-4-(8-oxa-3-azabicyclo[3.2.1]octan-3-yl)-1-(phenylthio)butan-2-ylamino)-N-(7-(1-((4′-chloro-4-fluorobiphenyl-2-yl)methyl)-4-deuteropiperidin-4-yl)-5,6,7,8-tetrahydropyrido[3,4-d]pyrimidin-4-yl)-3-(trifluoromethylsulfonyl)benzenesulfonamide] yielded an IC50 of 225 nM.
`CN(C)CC[C@H](CSc1ccc(Cl)c(Cl)c1)Nc1ccc(S(=O)(=O)Nc2ncnc3c2CCN(C2CCN(Cc4ccccc4-c4ccc(Cl)cc4)CC2)C3)cc1S(=O)(=O)C(F)(F)F` [Example 39, N-{7-[1-(4′-Chloro-biphenyl-2-ylmethyl)-piperidin-4-yl]-5,6,7,8-tetrahydro-pyrido[3,4-d]pyrimidin-4-yl}-4-[(R)-1-(3,4-dichloro-phenylsulfanylmethyl)-3-dimethylamino-propylamino]-3-trifluoromethanesulfonyl-benzenesulfonamide] was tested, and the IC50 was 41 nM.
